Measurements reported in patent US7923465B2, “Cannabinoid receptor ligands, pharmaceutical compositions containing them, and process for their preparation” (priority 2005, dated 2011).
Where two headings read alike, the source gives them in different places.

Legend:
CB1 [1] = target: T1, CB1 (Rattus norvegicus, UniProt P20272); assay: GTPγS binding assay, CB1 functional assay in rat cerebellar membrane (Protocol VIII); assay type: biochemical; parameters: 10 μg rat cerebellum membrane; from tissue; host or cells: rat cerebellum membrane, prepared in-house; details: for activation at 0.3 µM: 1 h, GTPγS binding over basal, rat cerebellar membrane, tested at 300 nM, read-out: Per Se % Stimulation; for inhibition at 0.3 µM: GTPγS binding, tested at 300 nM in presence of 1 μM WIN 55,212-2, read-out: % Inhibition of WIN-55212-2 induced stimulation
Summary of the method: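 Rat cerebellar membranes (10 μg) incubated 1 h at 30 °C with 0.2 nM [35S]GTPγS, 50 μM GDP, and compound at 1 μM or 300 nM, alone or with 1 μM WIN 55,212-2, in Tris/MgCl2/EGTA/NaCl pH 7.4. Filter-bound radioactivity counted; percent stimulation calculated against basal specific binding (nonspecific defined by 10 μM GTPγS).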

CB2 receptor = assay: Rat CB2 receptor binding using spleen membrane, [3H]CP55,940 displacement (Protocol III)
Method: III. In Vitro Protocol for Rat CB2 Receptor Binding Using Spleen Membrane
In this assay, [^3H]CP55,940 was used to bind the CB2 receptor present in a rat spleen membrane preparation which can be displaced by unlabeled ligands having affinity to the CB2 receptor.
The assay was performed according to the modified method of Rinaldi-Carmona et al., 1998 (JPET 284: 644-650). The total reaction mixture ([…]) contained Tris-BSA buffer (50 mM Tris, pH 7.4 with 1.5% BSA) or unlabeled SR144528 (N-[(1S)-endo-1,3,3-trimethyl bicyclo[2.2.1]heptan-2-yl]-5-(4-chloro-3-methylphenyl)-1-(4-methyl-benzyl)-pyrazole-3-carboxamide]) ([…]) or test samples (300 nM), [^3H]CP55,940 (1 nM) and […] of rat […] membrane. The non-specific binding was defined by […] of SR144528. The assay mixture was incubated at 37° C. for 1 hour. The reaction was then stopped by rapid filtration under vacuum using a Whatman GF/B-96 micro filter plate. A scintillation cocktail was added and radioactive counts were measured using a Topcount beta scintillation counter.
The standard and test sample dilutions were made in an assay buffer containing either ethanol or DMSO at a final concentration of 1%.
The percent (%) displacement by a test ligand was calculated by comparing the specific bound values.

hCB1 [2] = target: T2, hCB1 (Homo sapiens, UniProt P21554); assay: Agonism of CB1 receptors expressed in CHO cells, forskolin cAMP assay (Protocol IX.2); assay type: cell-based; parameters: expressed in transfected cells; host or cells: CHO (h-CB1/CHO, G418-selected)
Method: IX. Assay for Determining Agonist and Antagonist Activity to CB1 and CB2 Receptors
2. Agonism of CB1/CB2 Receptors Expressed in CHO Cells
h-CB1/CHO or h-CB2/CHO cells were grown in HAM's F12 DMEM medium (Sigma) with 10% FBS (Hyclone), 1% penicillin-streptomycin solution and 400 μg/ml of G418 (Sigma). 5000 cells were seeded per well in a 96 well plate and incubated for 24 hours at 37° C. in 5% CO2. On the day of assay, cells were washed with warm Krebs Buffer containing 0.1% fatty acid free (FAF) BSA (Sigma) and re-suspended in the same buffer containing 1 mM IBMX. […] At the end of incubation, cells were lysed using lysis reagent from the cAMP estimation kit and cAMP was quantitated by chemiluminescence method described in the manufacturer's instructions (DiscoveRX). EC50 values were calculated from dose response curves by nonlinear regression analysis using PRISM software.

hCB1 [3] = target: T2, hCB1; assay: Antagonism of CB1 receptors expressed in CHO cells, cAMP assay against CP 55,940 (Protocol IX.1); assay type: cell-based; parameters: expressed in transfected cells; host or cells: CHO (h-CB1/CHO, G418-selected); details: CHO, read-out: hCB1 Antagonism
CB1 [4] = target: T1, CB1; assay: Rat CB1 receptor binding using brain membrane, [3H]SR141716A displacement (Protocol I); parameters: CB1 receptor present in a rat brain membrane preparation; from tissue; host or cells: rat brain membrane; inhibition: dose or concentration left out as unconfirmed; details: 1 h, read-out: % Displacement Protocol I, rat brain membrane, [3H]SR141716A displacement
neuropathic hyperalgesia = assay: Neuropathic hyperalgesia model, partial sciatic nerve ligation (Seltzer's model, Protocol V); assay type: in vivo; details: rat, 1 mg/kg I.P., paw pressure, 0.5 and 1 hour postdose
Method: V. Neuropathic Hyperalgesia Model—Partial Sciatic Nerve Ligation (Seltzer's Model)
This protocol was performed with the compound of Example 294 at 0.01, 0.1, 0.3, and 1 mg/kg (I.P.), and gabapentin at 100 mg/kg (I.P.) to evaluate the ability of the compound of Example 294 in reducing neuropathic hyperalgesia. The Seltzer method is also generally described in Seltzer et al., Pain 1990, 43:205-18. • 1. Rats were anesthetised using ketamine/xylazine (40/5 mg/kg/ml, i.p.). After induction of anaesthesia, the left thigh was shaved and cleaned. • 2. The left sciatic nerve was exposed at mid thigh level through a small incision. • 3. The nerve was cleared from adhering muscle tissue. • 4. One half of the nerve thickness was tightly ligated just after the bifurcation of common sciatic nerve using 7.0 silk sutures. • 5. The wound was closed with muscle and skin sutures and povidone was applied. • 6. […] Paw withdrawal thresholds were recorded for both the ipsilateral and the contralateral hind paws before (predose) and 0.5 and 1 hour after drug or vehicle administration (postdose). • 9. […]
The threshold withdrawal latency (naïve, predose & postdose) values are represented as mean±SEM. […] The percent reversal of neuropathic mechanical hyperalgesia was calculated from withdrawal threshold latency values according to the following formula: […]

voluntary ethanol intake [5] = details: mice; cited from earlier work
voluntary ethanol intake [6] = details: rats; cited from earlier work

T1 sequence (P20272 whole entry): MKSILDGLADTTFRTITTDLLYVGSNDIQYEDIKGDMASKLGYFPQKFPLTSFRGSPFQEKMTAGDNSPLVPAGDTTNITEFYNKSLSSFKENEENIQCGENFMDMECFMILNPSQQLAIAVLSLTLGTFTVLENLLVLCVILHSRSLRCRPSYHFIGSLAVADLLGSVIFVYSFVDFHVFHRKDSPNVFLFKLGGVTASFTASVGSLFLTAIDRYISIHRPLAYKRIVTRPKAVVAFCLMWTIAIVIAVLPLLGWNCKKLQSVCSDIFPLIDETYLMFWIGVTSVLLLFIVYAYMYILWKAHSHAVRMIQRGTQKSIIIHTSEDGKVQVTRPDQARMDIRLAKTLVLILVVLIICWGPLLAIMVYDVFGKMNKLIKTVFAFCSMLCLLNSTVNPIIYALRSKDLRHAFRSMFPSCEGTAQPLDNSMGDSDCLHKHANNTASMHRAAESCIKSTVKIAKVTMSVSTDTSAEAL
T2 sequence (P21554 whole entry): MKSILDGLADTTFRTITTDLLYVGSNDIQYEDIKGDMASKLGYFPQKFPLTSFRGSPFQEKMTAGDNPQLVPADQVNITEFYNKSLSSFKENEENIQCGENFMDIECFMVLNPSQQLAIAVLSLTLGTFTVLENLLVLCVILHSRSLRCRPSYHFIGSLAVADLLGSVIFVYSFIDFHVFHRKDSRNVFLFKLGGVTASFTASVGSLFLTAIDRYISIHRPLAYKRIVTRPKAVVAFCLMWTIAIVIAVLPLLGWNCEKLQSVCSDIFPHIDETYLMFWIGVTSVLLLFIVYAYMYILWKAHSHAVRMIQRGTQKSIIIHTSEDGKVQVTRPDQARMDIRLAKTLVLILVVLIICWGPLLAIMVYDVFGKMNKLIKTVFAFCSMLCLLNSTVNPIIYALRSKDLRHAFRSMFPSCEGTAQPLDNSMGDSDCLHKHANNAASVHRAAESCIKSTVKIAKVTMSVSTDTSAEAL

For `C[C@H](NC(=O)c1nn(-c2ccc(Cl)cc2)c2c1C1CC3CC(C1)CC2C3)c1ccccc1` [Example 117], the activation at 0.3 µM (CB1 [1]) was 4.4%, the inhibition at 0.3 µM (CB1 [1]) was 55.7% and the melting point was 85 to 86 °C. For the same molecule, the “% Displacement Protocol III” value (CB2 receptor) was 59.8% and the IC50 (hCB1 [2]) was 18.9 nM.
In the case of `CC(C)(NC(=O)c1nn(-c2ccc(Cl)cc2)c2c1C1CC3CC(C1)CC2C3)c1ccccc1` [Example 119], the activation at 0.3 µM (CB1 [1]) is reported as 46%, the inhibition at 0.3 µM (CB1 [1]) is reported as 38.9% and the inhibition at 10 µM (hCB1 [3]) is reported as 18.4%. For the same molecule, the melting point was 181 °C, the “% Displacement Protocol III” value (CB2 receptor) was 85.2% and the IC50 (hCB1 [2]) was 38.3 nM.
In the case of `CC(C)(NC(=O)c1nn(-c2ccc(F)cc2F)c2c1C1CCC2C1)c1ccccc1` (stereo not drawn) [Example 294, N(3)-(1-Methyl-1-phenylethyl)-1-(2,4-difluorophenyl)-4,5,6,7-tetrahydro-1H-4,7-methano-indazole-3-carboxamide], the activation at 0.3 µM (CB1 [1]) is reported as 103%, the inhibition at 0.3 µM (CB1 [1]) is reported as 9.8% and the melting point is reported as 105 °C. For the same molecule, the inhibition (CB1 [4]) was 111% and the “reversal of neuropathic hyperalgesia” value (neuropathic hyperalgesia) was “significantly reversed neuropathic hyperalgesia”.
In the case of `Cc1c(C(=O)NN2CCCCC2)nn(-c2ccc(Cl)cc2Cl)c1-c1ccc(Cl)cc1` [SR-141716A, 5-(4-chlorophenyl)-1-(2,4-dichlorophenyl)-4-methyl-N-(1-piperidyl)pyrazole-3-carboxamide], the voluntary ethanol intake (voluntary ethanol intake [5]) is given as “block voluntary ethanol intake” and the voluntary ethanol intake (voluntary ethanol intake [6]) is given as “block voluntary ethanol intake”.
